According to patent US8637525B2, “Compounds for the reduction of beta-amyloid production” (Bristol-Myers Squibb Company, priority 2009, dated 2014):
Structures can show the parent of a compound that is named as a salt. Where two headings read alike, the source gives them in different places.

System: Aβ1-42 production
Assay: Cellular assay for inhibition of Aβ1-42 production (H4 APP751 SWE clone 8.20)
Assay type: cell-based
Conditions: H4 APP751 SWE clone 8.20 cells, 19 h incubation
In short: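 Compound-treated cells were incubated 19 h at 37 °C in 5% CO2. Aβ42 in the cell plate was detected overnight at 4 °C with an Aβ42 neoepitope antibody (565, Wallac-labelled, 0.8 ng/well) plus N-terminal antibody 26D6 (APC, 75 ng/well) in 40 mM Tris-HCl pH 7.4, 0.2% BSA. IC50s came from curve fitting.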

[1] = 19 h, class symbols, read-out: Activity Rating (Aβ42 cellular IC50)
[2] = 19 h, read-out: Activity Rating (Aβ42 cellular IC50), numeric value
[3] = class symbols, read-out: Activity Rating (Aβ42 cellular IC50)

Compound	IC50 [1] [nM]	IC50 [2] [nM]	also measured
COc1cc(Nc2nc3c(c(N4C[C@@H](C)O[C@@H](C)C4)n2)COC3c2ccc(F)cc2)ccc1-n1cnc(Cl)c1 (mixture of isomers) [Example 84, N-(4-(4-chloro-1H-imidazol-1-yl)-3-methoxyphenyl)-4-((2S,6R)-2,6-dimethylmorpholino)-7-(4-fluorophenyl)-5,7-dihydrofuro[3,4-d]pyrimidin-2-amine, 2 TFA]	10 to 100		
CNc1nc(Nc2ccc(-n3cnc(Cl)c3)c(OC)c2)nc2c1COCC2c1ccc(F)cc1 (centres unmarked) [Example 60A, N2-(4-(4-chloro-1H-imidazol-1-yl)-3-methoxyphenyl)-8-(4-fluorophenyl)-N4-methyl-7,8-dihydro-5H-pyrano[4,3-d]pyrimidine-2,4-diamine]		5.6	
CCNc1nc(Nc2ccc(-n3cnc(Cl)c3)c(OC)c2)nc2c1CN(CC(F)(F)F)CC2c1ccccc1 (centres unmarked) [Example 196]			IC50 [3]: 10 to 100 nM
CNc1nc(Nc2ccc(-n3ncnc3C)c(F)c2)nc2c1CN(S(=O)(=O)C1CC1)CC2c1ccccc1 (centres unmarked) [Example 142, 6-(cyclopropylsulfonyl)-N2-(3-fluoro-4-(5-methyl-1H-1,2,4-triazol-1-yl)phenyl)-N4-methyl-8-phenyl-5,6,7,8-tetrahydropyrido[4,3-d]pyrimidine-2,4-diamine]	10 to 100		
COc1cc(Nc2nc3c(c(N(C)C)n2)CCC3c2ccc(OC(F)(F)F)cc2)ccc1-n1cnc(Cl)c1 (single isomer, unassigned) [Example 100B, N^2-(4-(4-chloro-1H-imidazol-1-yl)-3-methoxyphenyl)-N^4,N^4-dimethyl-7-(4-(trifluoromethoxy)phenyl)-6,7-dihydro-5H-cyclopenta[d]pyrimidine-2,4-diamine]	10 to 100		
CCNc1nc(Nc2ccc(-n3ncnc3C)c(F)c2)nc2c1CN(S(C)(=O)=O)CC2c1ccccc1 (centres unmarked) [Example 140, N4-ethyl-N2-(3-fluoro-4-(5-methyl-1H-1,2,4-triazol-1-yl)phenyl)-6-(methylsulfonyl)-8-phenyl-5,6,7,8-tetrahydropyrido[4,3-d]pyrimidine-2,4-diamine]			IC50 [3]: 10 to 100 nM
CNc1nc(Nc2ccc(-n3cnc(Cl)c3)c(OC)c2)nc2c1CCC2c1ccc(F)c(F)c1 (single isomer, unassigned) [Example 96B, N^2-(4-(4-chloro-1H-imidazol-1-yl)-3-methoxyphenyl)-7-(3,4-difluorophenyl)-N^4-methyl-6,7-dihydro-5H-cyclopenta[d]pyrimidine-2,4-diamine]		4.6	
COc1cc(Nc2nc3c(c(N4CC[C@@H](F)C4)n2)COC3c2ccc(F)cc2)ccc1-n1cnc(Cl)c1 (single isomer, unassigned) [Example 83A]			IC50 [3]: 1.5 to 9.9 nM
CNc1nc(Nc2cnc(-n3cnc(Cl)c3)c(OC)c2)nc2c1CCC2c1cc(F)c(F)c(F)c1 (centres unmarked) [Example 105, N^2-(6-(4-Chloro-1H-imidazol-1-yl)-5-methoxypyridin-3-yl)-N^4-methyl-7-(3,4,5-trifluorophenyl)-6,7-dihydro-5H-cyclopenta[d]pyrimidine-2,4-diamine]		8.8	
CCNc1nc(Nc2ccc(-n3cnc(Cl)c3)c(OC)c2)nc2c1CCC2c1ccc(OC(F)(F)F)cc1 (single isomer, unassigned) [Example 98A, N^2-(4-(4-Chloro-1H-imidazol-1-yl)-3-methoxyphenyl)-N^4-ethyl-7-(4-(trifluoromethoxy)phenyl)-6,7-dihydro-5H-cyclopenta[d]pyrimidine-2,4-diamine]			IC50 [3]: 1.5 to 9.9 nM
CCNc1nc(Nc2ccc(-n3ncnc3C)c(F)c2)nc2c1COCC2c1ccc(C(F)(F)F)cc1 (centres unmarked) [Example 119A, N4-ethyl-N2-(3-fluoro-4-(5-methyl-1H-1,2,4-triazol-1-yl)phenyl)-8-(4-(trifluoromethyl)phenyl)-7,8-dihydro-5H-pyrano[4,3-d]pyrimidine-2,4-diamine]		7.4	
CNc1nc(Nc2ccc(-n3ncnc3C)c(F)c2)nc2c1COC2c1ccc(F)cc1 (centres unmarked) [Example 82B, N2-(3-fluoro-4-(5-methyl-1H-1,2,4-triazol-1-yl)phenyl)-7-(4-fluorophenyl)-N4-methyl-5,7-dihydrofuro[3,4-d]pyrimidine-2,4-diamine]			IC50 [3]: 10 to 100 nM
CNc1nc(Nc2ccc(-n3cnc(C)n3)c(F)c2)nc2c1CCC2c1ccccc1 (centres unmarked) [Example 2, N2-(3-fluoro-4-(3-methyl-1H-1,2,4-triazol-1-yl)phenyl)-N4-methyl-7-phenyl-6,7-dihydro-5H-cyclopenta[d]pyrimidine-2,4-diamine]	1.5 to 9.9		
CCNc1nc(Nc2ccc(-n3cnc(Cl)c3)c(OC)c2)nc2c1CN(C(=O)COC)CC2c1ccccc1 (centres unmarked) [Example 133, 1-(2-(4-(4-chloro-1H-imidazol-1-yl)-3-methoxyphenylamino)-4-(ethylamino)-8-phenyl-7,8-dihydropyrido[4,3-d]pyrimidin-6(5H)-yl)-2-methoxyethanone]			IC50 [3]: 10 to 100 nM
CCNc1nc(Nc2ccc(-n3cnc(Cl)c3)c(OC)c2)nc2c1CCOC2c1ccc(F)cc1 (centres unmarked) [Example 88A, N2-(4-(4-chloro-1H-imidazol-1-yl)-3-methoxyphenyl)-N4-ethyl-8-(4-fluorophenyl)-6,8-dihydro-5H-pyrano[3,4-d]pyrimidine-2,4-diamine]		4.5	
CCNc1nc(Nc2ccc(-n3ncnc3C)c(F)c2)nc2c1CN(CC(F)(F)F)CC2c1ccccc1 (centres unmarked) [Example 146, N4-ethyl-N2-(3-fluoro-4-(5-methyl-1H-1,2,4-triazol-1-yl)phenyl)-8-phenyl-6-(2,2,2-trifluoroethyl)-5,6,7,8-tetrahydropyrido[4,3-d]pyrimidine-2,4-diamine]	10 to 100		
CCC(COC)Nc1nc(Nc2ccc(-n3cnc(Cl)c3)c(OC)c2)nc2c1CCC2c1ccc(F)cc1 [Example 48, N2-(4-(4-chloro-1H-imidazol-1-yl)-3-methoxyphenyl)-7-(4-fluorophenyl)-N4-((R)-1-methoxybutan-2-yl)-6,7-dihydro-5H-cyclopenta[d]pyrimidine-2,4-diamine, 2 TFA]		18	
COc1cc(Nc2nc3c(c(N(C)C)n2)COCC3c2ccc(F)cc2)ccc1-n1cnc(Cl)c1 (racemic) [Example 61, N2-(4-(4-chloro-1H-imidazol-1-yl)-3-methoxyphenyl)-8-(4-fluorophenyl)-N4,N4-dimethyl-7,8-dihydro-5H-pyrano[4,3-d]pyrimidine-2,4-diamine]	10 to 100		
CNc1nc(Nc2ccc(-n3cnc(Cl)c3)c(OC)c2)nc2c1COC2c1ccc(F)cc1 (single isomer, unassigned) [Example 79A, N^2-(4-(4-chloro-1H-imidazol-1-yl)-3-methoxyphenyl)-7-(4-fluorophenyl)-N^4-methyl-5,7-dihydrofuro[3,4-d]pyrimidine-2,4-diamine]		5.8	
COc1cc(Nc2nc(NCCCO)c3c(n2)C(c2ccc(F)cc2)CC3)ccc1-n1cnc(Cl)c1 (racemic) [Example 43, 3-(2-(4-(4-chloro-1H-imidazol-1-yl)-3-methoxyphenylamino)-7-(4-fluorophenyl)-6,7-dihydro-5H-cyclopenta[d]pyrimidin-4-ylamino)propan-1-ol]	1.5 to 9.9		
COc1cc(Nc2nc3c(c(N4CCC4)n2)CCC3c2ccc(OC(F)(F)F)cc2)ccc1-n1cnc(Cl)c1 (single isomer, unassigned) [Example 101A, 4-(azetidin-1-yl)-N-(4-(4-chloro-1H-imidazol-1-yl)-3-methoxyphenyl)-7-(4-(trifluoromethoxy)phenyl)-6,7-dihydro-5H-cyclopenta[d]pyrimidin-2-amine]			IC50 [3]: 1.5 to 9.9 nM

More lines, main results first:

IC50 [1] [nM]	IC50 [2] [nM]	Compound	also measured
10 to 100		CNc1nc(Nc2ccc(-n3cnc(Cl)c3)c(OC)c2)nc2c1C(=O)CC2c1ccccc1 (racemic) [Example 200, (±)-2-(4-(4-chloro-1H-imidazol-1-yl)-3-methoxyphenylamino)-4-(methylamino)-7-phenyl-6,7-dihydro-5H-cyclopenta[d]pyrimidin-5-one]	
1.5 to 9.9		CNc1nc(Nc2ccc(-n3cnc(Cl)c3)c(OC)c2)nc2c1C(O)CC2c1ccccc1 (centres unmarked) [Example 202, 2-(4-(4-chloro-1H-imidazol-1-yl)-3-methoxyphenylamino)-4-(methylamino)-7-phenyl-6,7-dihydro-5H-cyclopenta[d]pyrimidin-5-ol]	
> 1000		CNc1nc(Nc2ccc(Br)cc2OC)nc2c1CCC2c1ccccc1 (centres unmarked) [Example 221, N2-(4-bromo-2-methoxyphenyl)-N4-methyl-7-phenyl-6,7-dihydro-5H-cyclopenta[d]pyrimidine-2,4-diamine]	
	29	CNc1nc(Nc2ccc(C#N)c(C#N)c2)nc2c1CCC2c1ccccc1 (centres unmarked) [Example 237, 4-(4-(methylamino)-7-phenyl-6,7-dihydro-5H-cyclopenta[d]pyrimidin-2-ylamino)phthalonitrile]	
10 to 100		CNc1nc(Nc2ccc(-n3cnc(C)n3)c(OC)c2)nc2c1CC[C@@H]2c1ccccc1OC [Example 266B, (R)—N2-(3-methoxy-4-(3-methyl-1H-1,2,4-triazol-1-yl)phenyl)-7-(2-methoxyphenyl)-N4-methyl-6,7-dihydro-5H-cyclopenta[d]pyrimidine-2,4-diamine]	
1.5 to 9.9		CNc1nc(Nc2ccc(-n3cnc(Cl)c3)c(OC)c2)nc2c1CN(C)CC2c1ccc(F)cc1 (centres unmarked) [Example 163A, N2-(4-(4-chloro-1H-imidazol-1-yl)-3-methoxyphenyl)-8-(4-fluorophenyl)-N4,6-dimethyl-5,6,7,8-tetrahydropyrido[4,3-d]pyrimidine-2,4-diamine]	
	15	CNc1nc(Nc2ccc(-n3cnc(C)n3)c(OC)c2)nc2c1CN(C)CC2c1ccc(F)cc1 (centres unmarked) [Example 198B, 8-(4-fluorophenyl)-N2-(3-methoxy-4-(3-methyl-1H-1,2,4-triazol-1-yl)phenyl)-N4,6-dimethyl-5,6,7,8-tetrahydropyrido[4,3-d]pyrimidine-2,4-diamine]	
	67	CNc1nc(Nc2ccc(Br)c(C#N)c2)nc2c1CCC2c1ccccc1 (centres unmarked) [Example 242, 2-bromo-5-(4-(methylamino)-7-phenyl-6,7-dihydro-5H-cyclopenta[d]pyrimidin-2-ylamino)benzonitrile]	
